Test results: US7781423B2, “Compounds to promote regeneration of bone marrow” (priority 2007, dated 2010)

Key:
[1] = test system: healthy mice; test: Toxicity in healthy mice; type: in vivo; settings: 1,000-1,500 μmole doses
[2] = test system: human bone marrow-derived mesenchymal stem cells; test: Survival of mesenchymal stem cells in the absence of serum (viable cell number); type: cell-based; settings: serum-free medium
Protocol: Bone marrow aspirates were taken from normal adult donors after an informed consent was signed. Bone marrow mesenchymal stem cells were prepared by a widely used technique as described earlier by others. Pittenger, M. F., Mackay, A. M., Beck, S. C., Jaiswal, R. K., Douglas, R., Mosca, J. D., Moorman, M. A., Simonetti, D. W., Craig, S. and Marshak, D. R., “Multilineage potential of adult human mesenchymal stem cells,” Science, 284, 143-147 (1999). […] When cells grew to about 80% confluence, they were suspended and harvested by incubating with a ready-made solution containing 0.25% trypsin and 1 mM EDTA (Sigma-Aldrich, St. Louis, Mo.) for 5 minutes at 37° C.; this cell suspension is designated as passage 1. […]
The total numbers of nucleated and viable cells were determined with a hemocytometer, using Turck's solution and trypan blue stain, respectively. […]
In the experiments reported in Table 7 and Table 8, human bone marrow-derived mesenchymal stem cells were split at 1:3 and then incubated for 24 hours in 10% fetal calf serum-containing medium to about 30-35% confluence. […] The data are expressed as mean values±std. dev. of 3 determinations.

For `Cc1c(OCC(O)C[N+](C)(C)C)cc2c(=O)c3ccccc3sc2c1C.[Cl-]` (stereo not drawn) [CCcompound1, [3-(3,4-Dimethyl-9-oxo-9H-thioxanthen-2-yloxy)-2-hydroxypropyl]trimethyl-ammonium chloride], the “tissue alterations at high doses” value [1] was “mild parenchymal degeneration in the heart, focal hypostasis and chronic bronchopneumonia”, the “effect on cell numbers (survival)” value ([2]; 10 μM) was “did not reach statistical significance” and the “effect on cell numbers (survival)” value ([2]; 50 μM) was “no effect”.
